Experimental data as given in patent US20020039567A1, “Methods of treating bone or cartilage conditions by the administration of creatine” (priority 1998, published 2002).

Columns and labels:
epiphyseal growth plate = conditions: feeding rats with GPA; cited from earlier work
cultured chondrocytes = conditions: cited from earlier work
[1] = tested on: osteoblasts (micromass culture); experiment: Cell viability (neutral red uptake), micromass osteoblast cell culture; type: cell-based, rat; conditions: 20 mM creatine; 3 weeks; vs control (p<0.005) and 10 mM creatine (p<0.003)
Procedure: This isolation technique is based on the ability of osteoblasts to migrate from bone onto a substratum. Parietal and frontal calvariae (4 per animal) were aseptically explanted from 6 day-old IcoIbm rats. The calvariae were placed in Tyrode's balanced salt solution, calcium and magnesium free (TESS). The periosteum was enzymatically removed with 0.05% trypsin and 0.02% collagenase A (0.76 U/mg) dissolved in TBSS (40 calvaria/20 ml). The calvariae were shaken for 70 minutes in a waterbath at 37° C. They were washed with TESS and then transferred to 60 mm culture dishes (40 calvariae/dish) containing 5 ml of 0.02% collagenase A (0.76 U/mg) in culture medium BGJb Fitton-Jackson modification and placed in the incubator for 4 hours. The calvariae were then washed with culture medium B supplemented with 10% foetal calf serum (FCS). The calvariae were transferred into 60 mm culture dishes (4 frontal and 4 parietal/dish). The growth medium supplemented with 10% FCS and 50 μg/ml ascorbate was completely changed every 48 hours. The culture was kept for 3 weeks. […] The viability of the resuspended cells was examined by the dye exclusion of 0.4% trypan blue, and the cells were counted in a haeinocytometer. […] The absorbance of the supernatant (3 aliquots/dish) was read at 540 nm versus extraction buffer. […] If the absorbance was higher than 1, the samples were diluted with extraction buffer.

N=C(N)NCCC(=O)O [GPA, beta-guanidinopropionic acid]
epiphyseal growth plate morphology (epiphyseal growth plate): marked abnormalities | synthesis of pro-a type II and type X collagen (cultured chondrocytes): interferes with the synthesis

CN(CC(=O)O)C(=N)N [creatine]
NR uptake [1]: significantly lower NR uptake
